Measured values taken from ChEMBL document CHEMBL5370634, “Synthesis and Antifungal Evaluation of New Azole Derivatives against Candida albicans” (ACS Med Chem Lett, 2023).
In brackets after ≈: the same amount, converted by molar mass. Activity calls are given as the source filed them. The calls are words filed in the database; no cut-off is given here.

How the values were obtained:
Candida albicans [1] = test: Antifungal activity against Candida albicans SC5314 incubated for 24 hrs by microdilution method; assay type: functional
Candida albicans [2] = test: Antifungal activity against Candida albicans SC5314 incubated for 24 hrs in presence of fluconazole by microdilution method; assay type: functional
Candida albicans [3] = test: Antifungal activity against Candida albicans SC5314FR incubated for 24 hrs in presence of fluconazole by microdilution method; assay type: functional, SC5314
Candida albicans [4] = test: Antifungal activity against Candida albicans SC5314 assessed as fractional inhibitory concentration index incubated for 24 hrs in presence of fluconazole by microdilution method; assay type: functional
Candida albicans [5] = test: Antifungal activity against Candida albicans SC5314FR incubated for 24 hrs by microdilution method; assay type: functional
Candida albicans [6] = test: Antifungal activity against Candida albicans SC5314FR assessed as fractional inhibitory concentration index incubated for 24 hrs in presence of fluconazole by microdilution method; assay type: functional
Candida albicans [7] = test: Antibiofilm activity against Candida albicans SC5314 assessed as inhibition of biofilm formation at 0.3 ug/mL incubated for 24 hrs in presence of fluconazole by crystal violet staining based inverted microscopy analysis; assay type: functional, organism-based; conditions: dose 0.3 µg/ml
Candida albicans [8] = test: Induction of morphological changes in Candida albicans SC5314 assessed as chaotic dissolution of cytoplasm incubated for 16 hrs by TEM analysis; assay type: functional, organism-based; conditions: dose 0.15-0.6 µg/ml
Candida albicans [9] = test: Induction of morphological changes in Candida albicans SC5314 assessed as appearance of incomplete cell wall structure incubated for 16 hrs by TEM analysis; assay type: functional, organism-based; conditions: dose 0.15-0.6 µg/ml
Candida albicans [10] = test: Antibiofilm activity against Candida albicans SC5314 assessed as inhibition of biofilm formation at 0.15 to 0.6 ug/mL incubated for 24 hrs by crystal violet staining based inverted microscopy analysis; assay type: functional, organism-based; conditions: dose 0.15-0.6 µg/ml
Candida albicans [11] = test: Induction of morphological changes in Candida albicans SC5314 assessed as appearance of obvious defects incubated for 16 hrs by TEM analysis; assay type: functional, organism-based; conditions: dose 0.15-0.6 µg/ml
Candida albicans [12] = test: Induction of morphological changes in Candida albicans SC5314 assessed as appearance of blurred boundary between cell wall and cell membrane incubated for 16 hrs by TEM analysis; assay type: functional, organism-based; conditions: dose 0.15-0.6 µg/ml
Candida albicans [13] = test: Induction of morphological changes in Candida albicans SC5314 assessed as chaotic dissolution of vacuoles incubated for 16 hrs by TEM analysis; assay type: functional, organism-based; conditions: dose 0.15-0.6 µg/ml
Candida albicans [14] = test: Induction of morphological changes in Candida albicans SC5314 assessed as leaking of intracellular substances incubated for 16 hrs by TEM analysis; assay type: functional, organism-based; conditions: dose 0.15-0.6 µg/ml
Candida albicans [15] = test: Induction of morphological changes in Candida albicans SC5314 assessed as appearance of broken slag-like material incubated for 16 hrs by TEM analysis; assay type: functional, organism-based; conditions: dose 0.15-0.6 µg/ml
Candida albicans [16] = test: Induction of cell membrane permeability in Candida albicans SC5314 at 0.15 to 0.6 ug/mL incubated for 16 hrs by […] iodide staining based fluorescence microscopy; assay type: functional, organism-based; conditions: dose 0.15-0.6 µg/ml
[17] = molecular target: T1, Lanosterol 14-alpha demethylase (Candida albicans (strain SC5314 / ATCC MYA-2876) (Yeast), UniProt P10613); test: Inhibition of CYP51 in Candida albicans SC5314 assessed as reduction in ergosterol content at 0.15 to 0.6 ug/mL incubated for 16 hrs by spectrophotometry analysis; conditions: at 0.15 to 0.6 µg/mL, dose 0.15-0.6 µg/ml
Candida albicans [18] = test: Induction of morphological changes in Candida albicans SC5314 assessed as appearance of unclear cell membrane outline incubated for 16 hrs by TEM analysis; assay type: functional, organism-based; conditions: dose 0.15-0.6 µg/ml
Candida albicans [19] = test: Induction of morphological changes in Candida albicans SC5314 assessed as appearance of loose texture incubated for 16 hrs by TEM analysis; assay type: functional, organism-based; conditions: dose 0.15-0.6 µg/ml
Candida albicans [20] = test: Antibiofilm activity against Candida albicans SC5314 assessed as inhibition of biofilm formation at 0.3 ug/mL incubated for 24 hrs by crystal violet staining based inverted microscopy analysis; assay type: functional, organism-based; conditions: dose 0.3 µg/ml
Candida albicans [21] = test: Induction of morphological changes in Candida albicans SC5314 assessed as appearance of slightly blurred cytoplasm at 0.3 ug/ml incubated for 16 hrs by TEM analysis; assay type: functional, organism-based; conditions: dose 0.3 µg/ml
[22] = molecular target: T1, Lanosterol 14-alpha demethylase; test: Inhibition of CYP51 in Candida albicans SC5314 assessed as reduction in ergosterol content at 0.3 ug/mL incubated for 16 hrs by spectrophotometry analysis; conditions: at 0.3 µg/mL
Candida albicans [23] = test: Induction of cell membrane permeability in Candida albicans SC5314 at 0.3 ug/mL incubated for 16 hrs by […] iodide staining based fluorescence microscopy; assay type: functional, organism-based; conditions: dose 0.3 µg/ml

T1 sequence (P10613 whole entry): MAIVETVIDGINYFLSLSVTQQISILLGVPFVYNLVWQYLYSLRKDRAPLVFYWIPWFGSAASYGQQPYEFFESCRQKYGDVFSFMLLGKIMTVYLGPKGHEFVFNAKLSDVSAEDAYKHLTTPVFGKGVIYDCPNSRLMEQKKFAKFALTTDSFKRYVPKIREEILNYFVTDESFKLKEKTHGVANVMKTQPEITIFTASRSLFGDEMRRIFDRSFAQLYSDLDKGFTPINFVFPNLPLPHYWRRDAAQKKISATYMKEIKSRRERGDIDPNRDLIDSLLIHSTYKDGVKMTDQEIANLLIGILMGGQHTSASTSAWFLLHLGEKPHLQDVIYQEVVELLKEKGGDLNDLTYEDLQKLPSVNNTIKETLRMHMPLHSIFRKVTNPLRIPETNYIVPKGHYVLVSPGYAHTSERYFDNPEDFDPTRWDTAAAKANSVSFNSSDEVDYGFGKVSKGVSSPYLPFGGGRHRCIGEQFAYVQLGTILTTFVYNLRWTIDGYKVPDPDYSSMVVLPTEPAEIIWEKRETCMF

Structure (SMILES) | MIC50 (Candida albicans [1]) [µg/mL] | MIC50 (Candida albicans [2]) [µg/mL] | MIC50 (Candida albicans [3]) [µg/mL] | fractional inhibitory concentration index (FICI) (Candida albicans [4]) | MIC50 (Candida albicans [5]) [µg/mL] | fractional inhibitory concentration index (FICI) (Candida albicans [6]) | further results
CC(=O)N1CCN(c2ccc(OCCN(CC(O)(Cn3cncn3)c3ccc(F)cc3F)C(=O)c3ccc(Cl)cc3)cc2)CC1 (stereo unspecified) | 6.79 (≈ 10.6 µM) | 0.91 | 147 | 0.64 | > 200 | 0.73 | 
CC(=O)N1CCN(c2ccc(OCCN(CC(O)(Cn3cncn3)c3ccc(F)cc3F)S(=O)(=O)c3ccc(Cl)cc3Cl)cc2)CC1 (stereo unspecified) | 0.02 (≈ 0.0282 µM) | 0.09 | > 200 | 4.55 | > 200 | 2 | inhibition (Candida albicans [7]): Active; Activity (Candida albicans [8]): Dose-Dependent Effect; Activity (Candida albicans [9]): Dose-Dependent Effect; inhibition (Candida albicans [10]): Active; Activity (Candida albicans [11]): Dose-Dependent Effect; Activity (Candida albicans [12]): Dose-Dependent Effect; Activity (Candida albicans [13]): Dose-Dependent Effect; Activity (Candida albicans [14]): Dose-Dependent Effect; Activity (Candida albicans [15]): Dose-Dependent Effect; Activity (Candida albicans [16]): Active; inhibition (INH) [17]: Active; Activity (Candida albicans [18]): Dose-Dependent Effect; Activity (Candida albicans [19]): Dose-Dependent Effect
CC(=O)N1CCN(c2ccc(OCCN(CC(O)(Cn3cncn3)c3ccc(F)cc3F)C(=O)CCCl)cc2)CC1 (stereo unspecified) | 19.4 (≈ 32.9 µM) | 1.83 | 190 | 1.11 | > 200 | 0.95 | 
CC(=O)N1CCN(c2ccc(OCCN(Cc3ccc(F)c(F)c3)CC(O)(Cn3cncn3)c3ccc(F)cc3F)cc2)CC1 (stereo unspecified) | 4.31 (≈ 6.88 µM) | 5.85 | > 200 | 4.61 | > 200 | 2 | 
OC(Cn1cncn1)(Cn1cncn1)c1ccc(F)cc1F [FLUCONAZOLE] | 1.8 (≈ 5.88 µM) |  |  |  | > 200 |  | inhibition (Candida albicans [20]): inactive; Activity (Candida albicans [21]): Active; inhibition (INH) [22]: Not Active; Activity (Candida albicans [23]): inactive
CC(=O)N1CCN(c2ccc(OCCN(CC(O)(Cn3cncn3)c3ccc(F)cc3F)C(=O)c3c(Cl)cccc3Cl)cc2)CC1 (stereo unspecified) | 6.25 (≈ 9.28 µM) | 0.56 | > 200 | 0.4 | > 200 | 2 | 
CC(=O)N1CCN(c2ccc(OCCN(Cc3ccc(C#N)cc3)CC(O)(Cn3cncn3)c3ccc(F)cc3F)cc2)CC1 (stereo unspecified) | 0.99 (≈ 1.61 µM) | 0.68 | > 200 | 1.08 | > 200 | 2 | 
C#CCN(CCOc1ccc(N2CCN(C(C)=O)CC2)cc1)CC(O)(Cn1cncn1)c1ccc(F)cc1F (stereo unspecified) | 9.31 (≈ 17.3 µM) | 3.42 | > 200 | 2.27 | > 200 | 2 | 
CC(=O)N1CCN(c2ccc(OCCN(CC(O)(Cn3cncn3)c3ccc(F)cc3F)C(=O)c3ccccc3Cl)cc2)CC1 (stereo unspecified) | 11.3 (≈ 17.8 µM) | 2.5 | > 200 | 1.61 | > 200 | 2 | 
CC(=O)N1CCN(c2ccc(OCCN(CC(O)(Cn3cncn3)c3ccc(F)cc3F)S(=O)(=O)c3ccc(Br)cc3)cc2)CC1 (stereo unspecified) | 0.2 (≈ 0.278 µM) | 0.04 | > 200 | 0.22 | > 200 | 2 | 
CC(=O)N1CCN(c2ccc(OCCN(Cc3ccc([N+](=O)[O-])cc3)CC(O)(Cn3cncn3)c3ccc(F)cc3F)cc2)CC1 (stereo unspecified) | 0.08 (≈ 0.126 µM) | 0.002 | > 200 | 0.03 | > 200 | 2 | 
CC(=O)N1CCN(c2ccc(OCCN(CC(O)(Cn3cncn3)c3ccc(F)cc3F)C(=O)c3ccc(C(F)(F)F)cc3)cc2)CC1 (stereo unspecified) | 17.9 (≈ 26.6 µM) | 3.32 | > 200 | 2.03 | > 200 | 2 | 
COc1ccc(C(=O)CN(CCOc2ccc(N3CCN(C(C)=O)CC3)cc2)CC(O)(Cn2cncn2)c2ccc(F)cc2F)cc1OC (stereo unspecified) | 35 (≈ 51.5 µM) | 1.22 | > 200 | 0.71 | > 200 | 2 | 
CC(=O)N1CCN(c2ccc(OCCN(Cc3ccc(Br)cc3)CC(O)(Cn3cncn3)c3ccc(F)cc3F)cc2)CC1 (stereo unspecified) | 5.71 (≈ 8.53 µM) | 2.17 | > 200 | 1.58 | > 200 | 2 | 
CC(=O)N1CCN(c2ccc(OCCN(Cc3ccc(Cl)cc3)CC(O)(Cn3cncn3)c3ccc(F)cc3F)cc2)CC1 (stereo unspecified) | 9.32 (≈ 14.9 µM) | 5.85 | > 200 | 3.88 | > 200 | 2 | 
CC(=O)N1CCN(c2ccc(OCCN(CC(O)(Cn3cncn3)c3ccc(F)cc3F)S(=O)(=O)CCCCl)cc2)CC1 (stereo unspecified) | 0.66 (≈ 1.03 µM) | 0.16 | > 200 | 0.33 | > 200 | 2 | 
CC(=O)N1CCN(c2ccc(OCCN(Cc3ccc(C(F)(F)F)cc3)CC(O)(Cn3cncn3)c3ccc(F)cc3F)cc2)CC1 (stereo unspecified) | 1.83 (≈ 2.78 µM) | 1.76 | > 200 | 1.94 | > 200 | 2 | 
CC(=O)N1CCN(c2ccc(OCCN(CC(O)(Cn3cncn3)c3ccc(F)cc3F)S(=O)(=O)c3ccc(F)cc3)cc2)CC1 (stereo unspecified) | 0.1 (≈ 0.152 µM) | 0.16 | > 200 | 1.69 | > 200 | 2 | 
CC(=O)N1CCN(c2ccc(OCCN(CC(O)(Cn3cncn3)c3ccc(F)cc3F)S(=O)(=O)c3ccc(Cl)cc3)cc2)CC1 (stereo unspecified) | 8.49 (≈ 12.6 µM) | 3.88 | > 200 | 2.61 | 33.2 (≈ 49.2 µM) | 13.42 | 
COc1ccc(S(=O)(=O)N(CCOc2ccc(N3CCN(C(C)=O)CC3)cc2)CC(O)(Cn2cncn2)c2ccc(F)cc2F)cc1 (stereo unspecified) | 7.27 (≈ 10.8 µM) | 0.72 | > 200 | 0.5 | > 200 | 2 | 
C=CCN(CCOc1ccc(N2CCN(C(C)=O)CC2)cc1)CC(O)(Cn1cncn1)c1ccc(F)cc1F (stereo unspecified) | 7.13 (≈ 13.2 µM) | 2.17 | 95.7 | 1.51 | 115 (≈ 213 µM) | 1.07 | 
CC(=O)N1CCN(c2ccc(OCCN(CC(O)(Cn3cncn3)c3ccc(F)cc3F)C(=O)c3cc(F)c(F)c(F)c3F)cc2)CC1 (stereo unspecified) | 0.31 (≈ 0.458 µM) | 0.14 | > 200 | 0.53 | > 200 | 2 | 
CC(=O)N1CCN(c2ccc(OCCN(CC(O)(Cn3cncn3)c3ccc(F)cc3F)S(=O)(=O)c3ccc(OC(F)(F)F)cc3)cc2)CC1 (stereo unspecified) | 0.84 (≈ 1.16 µM) | 0.26 | > 200 | 0.45 | > 200 | 2 | 
